How the values were obtained:
[1] = biological target: T1, S1P1 (Homo sapiens, UniProt P21453); experiment: Tango β-arrestin Recruitment Assay in HEK293 cells (Assay 2a); assay type: cell-based; design: linker with TEV protease (N1a) cleavage site (C); host or cells: HEK293, transiently transfected; details: Tango β-arrestin Recruitment Assay, read-out: Assay 2a EC50
How it was run: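 Agonist-driven β-arrestin2–TEV recruitment releases tTA to drive luciferase in transiently transfected HEK293 cells. Ten 3-fold dilutions from 10 μM top (1% DMSO), 16–18 h at 37 °C; EC50 fitted to percent activity versus DMSO background and 5 μM S1P efficacy control.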
Target sequence in this assay (P21453 whole entry): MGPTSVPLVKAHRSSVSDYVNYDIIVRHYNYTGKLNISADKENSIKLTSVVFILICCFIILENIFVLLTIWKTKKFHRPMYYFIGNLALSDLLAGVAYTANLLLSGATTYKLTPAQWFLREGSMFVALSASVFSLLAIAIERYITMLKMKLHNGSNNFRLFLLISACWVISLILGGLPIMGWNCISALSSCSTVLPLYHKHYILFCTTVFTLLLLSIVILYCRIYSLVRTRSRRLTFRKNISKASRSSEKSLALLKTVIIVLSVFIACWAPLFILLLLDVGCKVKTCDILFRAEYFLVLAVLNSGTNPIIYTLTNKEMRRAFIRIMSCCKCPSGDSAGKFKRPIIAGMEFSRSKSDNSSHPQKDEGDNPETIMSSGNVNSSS
Target sequence in this assay (P32121 whole entry partner): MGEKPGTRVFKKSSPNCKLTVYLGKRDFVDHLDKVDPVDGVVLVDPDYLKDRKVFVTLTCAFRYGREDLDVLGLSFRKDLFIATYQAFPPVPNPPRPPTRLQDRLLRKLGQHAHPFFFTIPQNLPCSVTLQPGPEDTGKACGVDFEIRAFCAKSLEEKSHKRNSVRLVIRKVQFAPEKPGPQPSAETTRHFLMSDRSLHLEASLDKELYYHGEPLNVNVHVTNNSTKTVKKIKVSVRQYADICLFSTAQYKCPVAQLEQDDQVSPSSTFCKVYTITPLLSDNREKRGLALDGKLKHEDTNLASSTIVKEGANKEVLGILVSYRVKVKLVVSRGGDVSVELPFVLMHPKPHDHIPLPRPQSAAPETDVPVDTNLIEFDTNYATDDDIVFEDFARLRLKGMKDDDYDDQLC

[2] = biological target: T1, S1P1; experiment: DELFIA GTP-Eu Binding Assay (Assay 3b); assay type: biochemical; design: purchased Lonza; host or cells: CHO cell membranes
Protocol: The DELFIA GTP-Eu binding assay (PerkinElmer) is a time-resolved fluorometric assay based on GDP-GTP exchange. CHO cell membranes (Lonza) expressing human S1P1 were incubated in 96-well filter plates (Pall, East Hills, N.Y.) in a final volume of 100 μL/well buffer containing 40 μg/mL membrane, 50 mM HEPES, 2 μM GDP, 10 mM MgCl2, 100 mM NaCl, 500 μg/mL Saponin and test compound. Test compounds were tested at maximum concentrations of 10 μM. Compounds were diluted (10 concentration points, 3-fold each) and added to the assay plate at a 1% final DMSO concentration. For each compound, there were duplicate assay plates and each assay plate had duplicate wells per concentration point. The plates were incubated for 30 min at room temperature on a plate shaker at low speed. GTP-Eu was added to each well (10 μL, 10 nM final concentration) and the plate was incubated for an additional 30 min with slow shaking The wells were washed with ice cold GTP washing buffer (3×150 μL) using a vacuum manifold and the assay plates read in an EnVision plate reader (PerkinElmer) at an excitation wavelength of 340 nm and an emission wavelength of 615 nm. To determine agonist activity, percent activity was calculated as [(test compound−background)/(positive control−background)*100], where background is the fluorescence in absence of compound and the positive control is the fluorescence from membranes incubated with 1 μM S1P (Avanti). The percent activities were plotted against compound concentration to determine IC50 or EC50 using XLFit (IDBS).
(§1) Assay 1 is the CNG cAMP Assay as described in Biological Example 1. Assay 2a and 2b are the Tango™ β-arrestin Recruitment Assay in HEK293 and U2OS cells, respectively, as described in Biological Example 2. Assay 3a is the hS1P1R GTPγS Binding Assay as described in Biological Example 3. Assay 3b is the GTP-Eu Binding Assay as described in Biological Example 3. EC50's were measured unless otherwise noted. […] In the table, “nt” means the Compound was not tested and “no” means the compound was tested but had no measurable activity under the assay conditions employed.
Target sequence in this assay (P21453 whole entry): as the sequence (P21453 whole entry) above

[3] = biological target: T1, S1P1; experiment: CNG cAMP Assay (Assay 1); assay type: cell-based; design: host or cells: HEK293 cells expressing the CNG channel; details: read-out: Assay 1 EC50
How it was run: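 cAMP-gated CNG membrane-potential read-out (350/590 nm, T90/T0 ratio) in S1P1/CNG HEK293 cells after 90 min with compound plus NECA 500 nM, S1P 10 nM (EC95), Ro 20-1724 25 μM. Ten 3-fold points from 10 μM, 1.8% DMSO; percent activity vs NECA-only control gives EC50.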
Target sequence in this assay (P21453 whole entry): as above

[4] = biological target: T1, S1P1; experiment: Tango β-arrestin Recruitment Assay in U2OS cells (Assay 2b); assay type: cell-based; design: linker with TEV protease (N1a) cleavage site (C); details: Tango β-arrestin Recruitment Assay, read-out: Assay 2b EC50
How it was run: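 Agonist EC50 from percent activity relative to 1 μM S1P efficacy control, using background-subtracted 460/530 nm emission ratios. Compounds (max 1 μM, ten 3-fold dilutions) incubated overnight at 37 °C with serum-starved S1P1 U2OS reporter cells, followed by 2 h β-lactamase reagent at room temperature.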
Target sequence in this assay (P21453 whole entry): as above
Target sequence in this assay (P32121 whole entry partner): as the sequence (P32121 whole entry partner) above

[5] = biological target: T2, hS1P1R (hEdg1) (Homo sapiens, UniProt P21453); experiment: hS1P1R GTPγS Binding Assay (Assay 3a); assay type: biochemical
T2 construct: purchased Lonza
T2 sequence (P21453 whole entry): as the sequence (P21453 whole entry) above
Protocol: The hS1P1R GTPγS binding assay was carried out at room temperature in 96 well non-binding surface assay plates. The reaction in each well contained 4 μg hS1P1R (hEdg1) membrane protein (Lonza), 30 μM GDP, 0.1 nM [^35S]GTPγS, 0.25% fatty acid free BSA, and serially diluted hS1P1R agonist compound in 200 μL assay buffer (25 mM Tris-HCl PH 7.9, 100 mM NaCl, 3 mM MgCl2, and 0.2 mM EGTA). After one hour of incubation, 0.9 mg of WGA (Wheat Germ Agglutinin) SPA beads in 50 μL of assay buffer was added to each well. The SPA beads were spun down after an additional one hour incubation. The radioactivity of the bound GTPγS was counted by reading the assay plate using a MicroBeta.
as §1

[6] = relative EC50 was measured (footnote 1), read-out: Assay 3b Relative EC50
[7] = footnote 1: Relative EC50 was measured, read-out: Assay 3b Relative EC50

Row | Compound | EC50 [1] [nM] | EC50 [2, 6] [nM] | EC50 [3] [nM] | EC50 [4] [nM] | EC50 [5] [nM] | EC50 [2, 7] [nM] | EC50 ([2]; read-out: Assay 3b EC50) [nM]
1 | Cc1cc(C2CC2C(=O)O)ccc1-c1noc(-c2cn3cc(C(F)(F)F)cc(Cl)c3n2)n1 (centres unmarked) [Entry 69] | 100 to 500 | 1000 to 5000 | ≤ 100 | – | – | – | –
2 | Cc1cc(CCC(=O)O)c(Cl)cc1-c1noc(-c2cn3cc(C(F)(F)F)cc(Br)c3n2)n1 [Example 196, 3-(4-{5-[8-bromo-6-(trifluoromethyl)imidazo[1,2-a]pyridin-2-yl]-1,2,4-oxadiazol-3-yl}-2-chloro-5-methylphenyl)propanoic acid] | ≤ 100 | – | ≤ 100 | ≤ 100 | ≤ 100 | – | –
3 | Cc1cc(C(C)CC(=O)O)ccc1-c1noc(-c2cn3cc(C(F)(F)F)cc(Br)c3n2)n1 (centres unmarked) [Example 153, 3-(4-{5-[8-bromo-6-(trifluoromethyl)imidazo[1,2-a]pyridin-2-yl]-1,2,4-oxadiazol-3-yl}-3-methylphenyl)butanoic acid] | 100 to 500 | – | ≤ 100 | – | – | 500 to 1000 | –
4 | O=C(O)C1CC1c1ccc(-c2noc(-c3cn4cc(C(F)(F)F)cc(Cl)c4n3)n2)c(Cl)c1 (centres unmarked) [Example 42, 2-(3-chloro-4-{5-[8-chloro-6-(trifluoromethyl)imidazo[1,2-a]pyridin-2-yl]-1,2,4-oxadiazol-3-yl}phenyl)cyclopropanecarboxylic acid] | 100 to 500 | 1000 to 5000 | ≤ 100 | – | – | – | –
5 | OCCOc1cc(Cl)c(-c2noc(-c3cn4cc(C(F)(F)F)cc(Cl)c4n3)n2)cc1Cl [Example 288, 2-[(2,5-dichloro-4-{5-[8-chloro-6-(trifluoromethyl)imidazo[1,2-a]pyridin-2-yl]-1,2,4-oxadiazol-3-yl}phenyl)oxy]ethanol] | ≤ 100 | – | ≤ 100 | ≤ 100 | ≤ 100 | – | –
6 | CC(O)COc1cc(Cl)c(-c2noc(-c3cn4cc(C(F)(F)F)cc(Cl)c4n3)n2)cc1Cl (centres unmarked) [Example 292, 1-[(2,5-dichloro-4-{5-[8-chloro-6-(trifluoromethyl)imidazo[1,2-a]pyridin-2-yl]-1,2,4-oxadiazol-3-yl}phenyl)oxy]propan-2-ol] | ≤ 100 | – | ≤ 100 | ≤ 100 | 100 to 500 | – | –
7 | OC[C@H](O)COc1cc(Cl)c(-c2nnc(-c3cn4cc(C(F)(F)F)cc(Cl)c4n3)s2)cc1Cl [Example 252, (25)-3-[(2,5-dichloro-4-{5-[8-chloro-6-(trifluoromethyl)imidazo[1,2-a]pyridin-2-yl]-1,3,4-thiadiazol-2-yl}phenyl)oxy]propane-1,2-diol] | ≤ 100 | – | ≤ 100 | ≤ 100 | 500 to 1000 | – | –
8 | CC(C)Cc1cc(Cl)c2nc(-c3nc(-c4cc(F)c(CCC(=O)O)cc4Cl)no3)cn2c1 [Example 149, 3-(5-chloro-4-{5-[8-chloro-6-(2-methylpropyl)imidazo[1,2-a]pyridin-2-yl]-1,2,4-oxadiazol-3-yl}-2-fluorophenyl)propanoic acid] | ≤ 100 | – | ≤ 100 | – | – | ≤ 100 | –
9 | O=C(O)CCc1cc(Cl)c(-c2nc(-c3cn4cc(C(F)(F)F)cc(Cl)c4n3)no2)cc1Cl [Example 315, 3-(2,5-dichloro-4-{3-[8-chloro-6-(trifluoromethyl)imidazo[1,2-a]pyridin-2-yl]-1,2,4-oxadiazol-5-yl}phenyl)propanoic acid] | ≤ 100 | – | ≤ 100 | ≤ 100 | 100 to 500 | – | –
10 | O=C(O)CCc1ccc(-c2noc(-c3cn4cc(C(F)(F)F)cc(Cl)c4n3)n2)c(Cl)c1 [Entry 1] | ≤ 100 | – | ≤ 100 | – | – | – | 500 to 1000
11 | OC[C@H](O)COc1cc(Cl)c(-c2noc(-c3cn4cc(C(F)(F)F)cc(Cl)c4n3)n2)cc1Cl [Entry 39] | ≤ 100 | – | ≤ 100 | ≤ 100 | ≤ 100 | – | –
12 | CC(C)(O)COc1cc(Cl)c(-c2noc(-c3cn4cc(C(F)(F)F)cc(Br)c4n3)n2)cc1Cl [Example 287, 1-[(4-{5-[8-bromo-6-(trifluoromethyl)imidazo[1,2-a]pyridin-2-yl]-1,2,4-oxadiazol-3-yl}-2,5-dichlorophenyl)oxy]-2-methylpropan-2-ol] | ≤ 100 | – | – | ≤ 100 | 100 to 500 | – | –
13 | O=C(O)CCc1cc(Cl)c(-c2nnc(-c3cn4cc(C(F)(F)F)cc(Br)c4n3)s2)cc1Cl [Example 286, 3-(4-{5-[8-bromo-6-(trifluoromethyl)imidazo[1,2-a]pyridin-2-yl]-1,3,4-thiadiazol-2-yl}-2,5-dichlorophenyl)propanoic acid] | ≤ 100 | – | – | ≤ 100 | 1000 to 5000 | – | –
14 | O=C(O)CCc1cc(Cl)c(-c2noc(-c3cn4cc(C(F)(F)F)cc(Br)c4n3)n2)cc1Cl [Entry 68] | ≤ 100 | – | ≤ 100 | ≤ 100 | ≤ 100 | – | –
15 | OC[C@@H](O)COc1cc(Cl)c(-c2noc(-c3cn4cc(C(F)(F)F)cc(Cl)c4n3)n2)cc1Cl [Example 289, (2R)-3-[(2,5-dichloro-4-{5-[8-chloro-6-(trifluoromethyl)imidazo[1,2-a]pyridin-2-yl]-1,2,4-oxadiazol-3-yl}phenyl)oxy]propane-1,2-diol] | ≤ 100 | – | ≤ 100 | ≤ 100 | ≤ 100 | – | –
16 | OC[C@H](O)COc1cc(Cl)c(-c2noc(-c3cn4cc(C(F)(F)F)cc(Br)c4n3)n2)cc1Cl [Entry 33] | ≤ 100 | – | – | ≤ 100 | ≤ 100 | – | –
17 | OCC(CO)COc1cc(Cl)c(-c2noc(-c3cn4cc(C(F)(F)F)cc(Cl)c4n3)n2)cc1Cl [Example 278, 2-{[(2,5-dichloro-4-{5-[8-chloro-6-(trifluoromethyl)imidazo[1,2-a]pyridin-2-yl]-1,2,4-oxadiazol-3-yl}phenyl)oxy]methyl}propane-1,3-diol] | ≤ 100 | – | – | ≤ 100 | ≤ 100 | – | –
18 | OC(CF)COc1cc(Cl)c(-c2noc(-c3cn4cc(C(F)(F)F)cc(Cl)c4n3)n2)cc1Cl (centres unmarked) [Example 118, 1-[(2,5-dichloro-4-{5-[8-chloro-6-(trifluoromethyl)imidazo[1,2-a]pyridin-2-yl]-1,2,4-oxadiazol-3-yl}phenyl)oxy]-3-fluoropropan-2-ol] | ≤ 100 | – | – | ≤ 100 | ≤ 100 | – | –
19 | C[C@@H](O)COc1cc(Cl)c(-c2noc(-c3cn4cc(C(F)(F)F)cc(Cl)c4n3)n2)cc1Cl [Example 295, (2R)-1-[(2,5-dichloro-4-{5-[8-chloro-6-(trifluoromethyl)imidazo[1,2-a]pyridin-2-yl]-1,2,4-oxadiazol-3-yl}phenyl)oxy]propan-2-ol] | ≤ 100 | – | – | ≤ 100 | ≤ 100 | – | –
20 | C[C@H](O)COc1cc(Cl)c(-c2noc(-c3cn4cc(C(F)(F)F)cc(Cl)c4n3)n2)cc1Cl [Entry 38] | ≤ 100 | – | – | ≤ 100 | ≤ 100 | – | –
